# Test results from PubChem BioAssay AID1919006 (Molecular Pharmacology Branch, DTP, NCI, 2023).
# Tested on: 885512-296-R-J2-PDC complex spheroid growth, % test/control
# Assay: Anticancer human tumor 885512-296-R-J2-PDC patient-derived breast carcinoma cell line growth inhibition [AhR]
# Settings: for IC50: curve of first compound; for viability, T/C: stronger effect = lower value
# Method in brief: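 Agents were dosed in half-log steps down from roughly clinical Cmax, or from 10 microM where Cmax was unknown, alone and with AhR antagonists. Read-out: percent test/control growth of tumor spheroids containing HUVEC and MSC stromal cells.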
# [1] = second compound 0.1 µM, first compound 0.00949 µM
# [2] = second compound 0.1 µM, first compound 0.03 µM
# [3] = second compound 0.1 µM, first compound 0.0949 µM
# [4] = second compound 0.1 µM, first compound 0.3 µM
# [5] = second compound 0.316 µM, first compound 0.00949 µM
# [6] = second compound 0.316 µM, first compound 0.03 µM
# [7] = second compound 0.316 µM, first compound 0.0949 µM
# [8] = second compound 0.316 µM, first compound 0.3 µM
# [9] = second compound 1 µM, first compound 0.00949 µM
# [10] = second compound 1 µM, first compound 0.03 µM
# [11] = second compound 1 µM, first compound 0.0949 µM
# [12] = second compound 1 µM, first compound 0.3 µM
# [13] = second compound 3.16 µM, first compound 0.00949 µM
# [14] = second compound 3.16 µM, first compound 0.03 µM
# [15] = second compound 3.16 µM, first compound 0.0949 µM
# [16] = second compound 3.16 µM, first compound 0.3 µM
# [17] = second compound 10 µM, first compound 0.00949 µM
# [18] = second compound 10 µM, first compound 0.03 µM
# [19] = second compound 10 µM, first compound 0.0949 µM
# [20] = second compound 10 µM, first compound 0.3 µM
# 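Further: spheroids exposed to compounds for seven days.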
compound,measurement,setting,value
CC1(C)CCC(CN2CCN(c3ccc(C(=O)NS(=O)(=O)c4ccc(NCC5CCOCC5)c([N+](=O)[O-])c4)c(Oc4cnc5[nH]ccc5c4)c3)CC2)=C(c2ccc(Cl)cc2)C1 + Cc1cncc(-c2nc(NCCc3c[nH]c4ccccc34)c3ncn(C(C)C)c3n2)c1,IC50,second compound 0.1 µM,5310 nM
same,IC50,second compound 0.316 µM,5220 nM
same,IC50,second compound 1 µM,3860 nM
same,IC50,second compound 3.16 µM,< 31.6 nM
same,IC50,second compound 10 µM,< 31.6 nM
same,"viability, T/C","second compound 0.1 µM, first compound 0.0316 µM",108%
same,"viability, T/C","second compound 0.1 µM, first compound 0.1 µM",120%
same,"viability, T/C","second compound 0.1 µM, first compound 0.316 µM",100%
same,"viability, T/C","second compound 0.1 µM, first compound 1 µM",97.9%
same,"viability, T/C","second compound 0.1 µM, first compound 3.16 µM",73%
same,"viability, T/C","second compound 0.1 µM, first compound 10 µM",21.9%
same,"viability, T/C","second compound 0.316 µM, first compound 0.0316 µM",95.8%
same,"viability, T/C","second compound 0.316 µM, first compound 0.1 µM",98.3%
same,"viability, T/C","second compound 0.316 µM, first compound 0.316 µM",97%
same,"viability, T/C","second compound 0.316 µM, first compound 1 µM",100%
same,"viability, T/C","second compound 0.316 µM, first compound 3.16 µM",68.4%
same,"viability, T/C","second compound 0.316 µM, first compound 10 µM",26.2%
same,"viability, T/C","second compound 1 µM, first compound 0.0316 µM",87.5%
same,"viability, T/C","second compound 1 µM, first compound 0.1 µM",84.5%
same,"viability, T/C","second compound 1 µM, first compound 0.316 µM",77.8%
same,"viability, T/C","second compound 1 µM, first compound 1 µM",71.8%
same,"viability, T/C","second compound 1 µM, first compound 3.16 µM",57%
same,"viability, T/C","second compound 1 µM, first compound 10 µM",23.2%
same,"viability, T/C","second compound 3.16 µM, first compound 0.0316 µM",42.2%
same,"viability, T/C","second compound 3.16 µM, first compound 0.1 µM",49.5%
same,"viability, T/C","second compound 3.16 µM, first compound 0.316 µM",50.7%
same,"viability, T/C","second compound 3.16 µM, first compound 1 µM",41.4%
same,"viability, T/C","second compound 3.16 µM, first compound 3.16 µM",39.7%
same,"viability, T/C","second compound 3.16 µM, first compound 10 µM",29.8%
same,"viability, T/C","second compound 10 µM, first compound 0.0316 µM",12.7%
same,"viability, T/C","second compound 10 µM, first compound 0.1 µM",13.7%
same,"viability, T/C","second compound 10 µM, first compound 0.316 µM",14.3%
same,"viability, T/C","second compound 10 µM, first compound 1 µM",12.4%
same,"viability, T/C","second compound 10 µM, first compound 3.16 µM",13.8%
same,"viability, T/C","second compound 10 µM, first compound 10 µM",10.1%
CCN(c1cc(-c2ccc(CN3CCOCC3)cc2)cc(C(=O)NCc2c(C)cc(C)[nH]c2=O)c1C)C1CCOCC1 + Cc1cncc(-c2nc(NCCc3c[nH]c4ccccc34)c3ncn(C(C)C)c3n2)c1,IC50,second compound 0.1 µM,> 3000 nM
same,IC50,second compound 0.316 µM,> 3000 nM
same,IC50,second compound 1 µM,> 3000 nM
same,IC50,second compound 3.16 µM,> 3000 nM
same,IC50,second compound 10 µM,< 9.49 nM
same,"viability, T/C",[1],98.8%
same,"viability, T/C",[2],104%
same,"viability, T/C",[3],91.3%
same,"viability, T/C",[4],87.8%
same,"viability, T/C","second compound 0.1 µM, first compound 0.949 µM",94.8%
same,"viability, T/C","second compound 0.1 µM, first compound 3 µM",83.3%
same,"viability, T/C",[5],102%
same,"viability, T/C",[6],105%
same,"viability, T/C",[7],98%
same,"viability, T/C",[8],94.9%
same,"viability, T/C","second compound 0.316 µM, first compound 0.949 µM",88.5%
same,"viability, T/C","second compound 0.316 µM, first compound 3 µM",74.8%
same,"viability, T/C",[9],91.4%
same,"viability, T/C",[10],93.5%
same,"viability, T/C",[11],85.7%
same,"viability, T/C",[12],73.6%
same,"viability, T/C","second compound 1 µM, first compound 0.949 µM",72.8%
same,"viability, T/C","second compound 1 µM, first compound 3 µM",80.1%
same,"viability, T/C",[13],58.6%
same,"viability, T/C",[14],62.1%
same,"viability, T/C",[15],59.9%
same,"viability, T/C",[16],58.8%
same,"viability, T/C","second compound 3.16 µM, first compound 0.949 µM",53.5%
same,"viability, T/C","second compound 3.16 µM, first compound 3 µM",54.8%
same,"viability, T/C",[17],21.8%
same,"viability, T/C",[18],24.6%
same,"viability, T/C",[19],24.4%
same,"viability, T/C",[20],18.8%
same,"viability, T/C","second compound 10 µM, first compound 0.949 µM",13%
same,"viability, T/C","second compound 10 µM, first compound 3 µM",8.18%
Nc1ncn(C2CC(O)C(CO)S2)c(=O)n1 (stereo not given) + Cc1cncc(-c2nc(NCCc3c[nH]c4ccccc34)c3ncn(C(C)C)c3n2)c1,IC50,second compound 0.1 µM,96.6 nM
same,IC50,second compound 0.316 µM,93.9 nM
same,IC50,second compound 1 µM,44.8 nM
same,IC50,second compound 3.16 µM,3.46 nM
same,IC50,second compound 10 µM,< 0.949 nM
same,"viability, T/C","second compound 0.1 µM, first compound 0.000949 µM",99.5%
same,"viability, T/C","second compound 0.1 µM, first compound 0.003 µM",110%
same,"viability, T/C",[1],107%
same,"viability, T/C",[2],79%
same,"viability, T/C",[3],53%
same,"viability, T/C",[4],40.9%
same,"viability, T/C","second compound 0.316 µM, first compound 0.000949 µM",98%
same,"viability, T/C","second compound 0.316 µM, first compound 0.003 µM",94.1%
same,"viability, T/C",[5],99.1%
same,"viability, T/C",[6],75.9%
same,"viability, T/C",[7],51.3%
same,"viability, T/C",[8],38.8%
same,"viability, T/C","second compound 1 µM, first compound 0.000949 µM",67.6%
same,"viability, T/C","second compound 1 µM, first compound 0.003 µM",67.8%
same,"viability, T/C",[9],70.7%
same,"viability, T/C",[10],55.7%
same,"viability, T/C",[11],38.8%
same,"viability, T/C",[12],33.1%
same,"viability, T/C","second compound 3.16 µM, first compound 0.000949 µM",47.4%
same,"viability, T/C","second compound 3.16 µM, first compound 0.003 µM",54.8%
same,"viability, T/C",[13],47.8%
same,"viability, T/C",[14],42.5%
same,"viability, T/C",[15],36%
same,"viability, T/C",[16],27.5%
same,"viability, T/C","second compound 10 µM, first compound 0.000949 µM",21%
same,"viability, T/C","second compound 10 µM, first compound 0.003 µM",23.5%
same,"viability, T/C",[17],18.9%
same,"viability, T/C",[18],15%
same,"viability, T/C",[19],17.4%
same,"viability, T/C",[20],13.9%
